From ChEMBL document CHEMBL1127195, “Screening chemically synthesized peptide libraries for biologically-relevant molecules” (Bioorg Med Chem Lett, 1993)
Each block holds one compound with its values, some of them ahead of it.

System: Monoclonal antibody (mAb)
Assay: Binding affinity towards monoclonal antibody (MAb) using ELISA assay, activity expressed relative to WQMGHS=1

Relative activity: 0.85
Compound: CSCC[C@H](NC(=O)[C@H](CCC(N)=O)NC(=O)[C@@H](N)Cc1c[nH]c2ccccc12)C(=O)NCC(=O)N[C@H](Cc1c[nH]cn1)C(=O)N[C@@H](CO)C(=O)O

Relative activity: 0.75
Compound: CSCC[C@@H](NC(=O)[C@H](CCC(N)=O)NC(=O)[C@H](N)Cc1c[nH]c2ccccc12)C(=O)NCC(=O)N[C@@H](Cc1c[nH]cn1)C(=O)N[C@@H](CO)C(=O)O

Relative activity: 0.89
Compound: CSCC[C@@H](NC(=O)[C@H](CCC(N)=O)NC(=O)[C@H](N)Cc1c[nH]c2ccccc12)C(=O)NCC(=O)N[C@@H](Cc1c[nH]cn1)C(=O)N[C@H](CO)C(=O)O

Relative activity: 1.39
Compound: CSCC[C@H](NC(=O)[C@@H](CCC(N)=O)NC(=O)[C@H](N)Cc1c[nH]c2ccccc12)C(=O)NCC(=O)N[C@H](Cc1c[nH]cn1)C(=O)N[C@@H](CO)C(=O)O

Relative activity: 0.83
Compound: CSCC[C@H](NC(=O)[C@H](CCC(N)=O)NC(=O)[C@H](N)Cc1c[nH]c2ccccc12)C(=O)NCC(=O)N[C@@H](Cc1c[nH]cn1)C(=O)N[C@H](CO)C(=O)O

Relative activity: 0.82
Compound: CSCC[C@H](NC(=O)[C@@H](CCC(N)=O)NC(=O)[C@@H](N)Cc1c[nH]c2ccccc12)C(=O)NCC(=O)N[C@@H](Cc1c[nH]cn1)C(=O)N[C@@H](CO)C(=O)O

Relative activity: 1.01
Compound: CSCC[C@@H](NC(=O)[C@H](CCC(N)=O)NC(=O)[C@@H](N)Cc1c[nH]c2ccccc12)C(=O)NCC(=O)N[C@@H](Cc1c[nH]cn1)C(=O)N[C@@H](CO)C(=O)O

Relative activity: 0.86
Compound: CSCC[C@H](NC(=O)[C@@H](CCC(N)=O)NC(=O)[C@@H](N)Cc1c[nH]c2ccccc12)C(=O)NCC(=O)N[C@@H](Cc1c[nH]cn1)C(=O)N[C@H](CO)C(=O)O

Relative activity: 1
Compound: CSCC[C@H](NC(=O)[C@H](CCC(N)=O)NC(=O)[C@@H](N)Cc1c[nH]c2ccccc12)C(=O)NCC(=O)N[C@@H](Cc1c[nH]cn1)C(=O)N[C@@H](CO)C(=O)O

Continued, compound first:

Compound: CSCC[C@@H](NC(=O)[C@@H](CCC(N)=O)NC(=O)[C@H](N)Cc1c[nH]c2ccccc12)C(=O)NCC(=O)N[C@H](Cc1c[nH]cn1)C(=O)N[C@@H](CO)C(=O)O
Relative activity: 0.9

Compound: CSCC[C@H](NC(=O)[C@@H](CCC(N)=O)NC(=O)[C@H](N)Cc1c[nH]c2ccccc12)C(=O)NCC(=O)N[C@@H](Cc1c[nH]cn1)C(=O)N[C@H](CO)C(=O)O
Relative activity: 0.88

Compound: CSCC[C@H](NC(=O)[C@@H](CCC(N)=O)NC(=O)[C@H](N)Cc1c[nH]c2ccccc12)C(=O)NCC(=O)N[C@@H](Cc1c[nH]cn1)C(=O)N[C@@H](CO)C(=O)O
Relative activity: 0.6

Compound: CSCC[C@@H](NC(=O)[C@@H](CCC(N)=O)NC(=O)[C@H](N)Cc1c[nH]c2ccccc12)C(=O)NCC(=O)N[C@@H](Cc1c[nH]cn1)C(=O)N[C@@H](CO)C(=O)O
Relative activity: 1.89

Compound: CSCC[C@@H](NC(=O)[C@@H](CCC(N)=O)NC(=O)[C@@H](N)Cc1c[nH]c2ccccc12)C(=O)NCC(=O)N[C@@H](Cc1c[nH]cn1)C(=O)N[C@@H](CO)C(=O)O
Relative activity: 0.75

Compound: CSCC[C@H](NC(=O)[C@H](CCC(N)=O)NC(=O)[C@@H](N)Cc1c[nH]c2ccccc12)C(=O)NCC(=O)N[C@H](Cc1c[nH]cn1)C(=O)N[C@H](CO)C(=O)O
Relative activity: 1.06

Compound: CSCC[C@@H](NC(=O)[C@H](CCC(N)=O)NC(=O)[C@H](N)Cc1c[nH]c2ccccc12)C(=O)NCC(=O)N[C@H](Cc1c[nH]cn1)C(=O)N[C@@H](CO)C(=O)O
Relative activity: 1.16

Compound: CSCC[C@@H](NC(=O)[C@@H](CCC(N)=O)NC(=O)[C@H](N)Cc1c[nH]c2ccccc12)C(=O)NCC(=O)N[C@@H](Cc1c[nH]cn1)C(=O)N[C@H](CO)C(=O)O
Relative activity: 0.43

Compound: CSCC[C@H](NC(=O)[C@H](CCC(N)=O)NC(=O)[C@H](N)Cc1c[nH]c2ccccc12)C(=O)NCC(=O)N[C@H](Cc1c[nH]cn1)C(=O)N[C@H](CO)C(=O)O
Relative activity: 1

Compound: CSCC[C@@H](NC(=O)[C@@H](CCC(N)=O)NC(=O)[C@@H](N)Cc1c[nH]c2ccccc12)C(=O)NCC(=O)N[C@H](Cc1c[nH]cn1)C(=O)N[C@H](CO)C(=O)O
Relative activity: 0.36

Compound: CSCC[C@H](NC(=O)[C@H](CCC(N)=O)NC(=O)[C@H](N)Cc1c[nH]c2ccccc12)C(=O)NCC(=O)N[C@@H](Cc1c[nH]cn1)C(=O)N[C@@H](CO)C(=O)O
Relative activity: 1.33

Compound: CSCC[C@H](NC(=O)[C@H](CCC(N)=O)NC(=O)[C@@H](N)Cc1c[nH]c2ccccc12)C(=O)NCC(=O)N[C@@H](Cc1c[nH]cn1)C(=O)N[C@H](CO)C(=O)O
Relative activity: 0.64

Compound: CSCC[C@@H](NC(=O)[C@@H](CCC(N)=O)NC(=O)[C@H](N)Cc1c[nH]c2ccccc12)C(=O)NCC(=O)N[C@H](Cc1c[nH]cn1)C(=O)N[C@H](CO)C(=O)O
Relative activity: 0.44

Compound: CSCC[C@@H](NC(=O)[C@H](CCC(N)=O)NC(=O)[C@@H](N)Cc1c[nH]c2ccccc12)C(=O)NCC(=O)N[C@H](Cc1c[nH]cn1)C(=O)N[C@H](CO)C(=O)O
Relative activity: 0.33

Compound: CSCC[C@@H](NC(=O)[C@H](CCC(N)=O)NC(=O)[C@@H](N)Cc1c[nH]c2ccccc12)C(=O)NCC(=O)N[C@H](Cc1c[nH]cn1)C(=O)N[C@@H](CO)C(=O)O
Relative activity: 1.31

Compound: CSCC[C@H](NC(=O)[C@@H](CCC(N)=O)NC(=O)[C@@H](N)Cc1c[nH]c2ccccc12)C(=O)NCC(=O)N[C@H](Cc1c[nH]cn1)C(=O)N[C@@H](CO)C(=O)O
Relative activity: 0.64

Compound: CSCC[C@@H](NC(=O)[C@@H](CCC(N)=O)NC(=O)[C@@H](N)Cc1c[nH]c2ccccc12)C(=O)NCC(=O)N[C@@H](Cc1c[nH]cn1)C(=O)N[C@H](CO)C(=O)O
Relative activity: 0.81

Compound: CSCC[C@@H](NC(=O)[C@H](CCC(N)=O)NC(=O)[C@@H](N)Cc1c[nH]c2ccccc12)C(=O)NCC(=O)N[C@@H](Cc1c[nH]cn1)C(=O)N[C@H](CO)C(=O)O
Relative activity: 1.17

Compound: CSCC[C@@H](NC(=O)[C@@H](CCC(N)=O)NC(=O)[C@@H](N)Cc1c[nH]c2ccccc12)C(=O)NCC(=O)N[C@H](Cc1c[nH]cn1)C(=O)N[C@@H](CO)C(=O)O
Relative activity: 1.58

Compound: CSCC[C@H](NC(=O)[C@H](CCC(N)=O)NC(=O)[C@H](N)Cc1c[nH]c2ccccc12)C(=O)NCC(=O)N[C@H](Cc1c[nH]cn1)C(=O)N[C@@H](CO)C(=O)O
Relative activity: 0.78
